Article PMC12733451, “A Novel RANKL/RANK Inhibitor IMB-R38 Inhibits Osteoporosis Through Regulating Bone Metabolism” (International Journal of Molecular Sciences, 2025)

Target: T1, RANK (Mus musculus, UniProt O35305)
T1 construct: gene Tnfrsf11a; extracellular segment of RANK (amino acid 26–210), His-RANK fusion expressed in E. coli
T1 sequence (O35305 26-210): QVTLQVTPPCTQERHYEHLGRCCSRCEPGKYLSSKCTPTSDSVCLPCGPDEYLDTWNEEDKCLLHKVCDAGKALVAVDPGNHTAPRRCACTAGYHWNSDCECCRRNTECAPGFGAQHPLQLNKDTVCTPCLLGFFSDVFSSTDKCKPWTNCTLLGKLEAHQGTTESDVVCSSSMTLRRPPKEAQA
Experiment: SPR on immobilized RANK; supported by CETSA in RAW264.[…] cells
Assay type: binding

Kd: 945 µM
Compound: O=C(Nc1ccc(N2CCCCC2)cc1)c1ccccc1O [IMB-R38, 2-hydroxy-N-(4-(piperidin-1-yl)phenyl)benzamide]
